# Entries after “also recorded” stand apart in the source; their conditions may differ.
# Test system: vaccinia virus
# Type: cell-based
# For VACCINIA PLAQUE ASSAY 2 in this document: test concentration or dose not given here.
Compound,Class category of infected monolayers in plaque assay,VACCINIA PLAQUE ASSAY 2,VACCINIA Plaque Assay,"Plaque phenotype due to drug treatment (FIGS. 1, 2, 4)"
COc1ccccc1NS(=O)(=O)c1cccc(Nc2cc(-c3ccc(NC(C)=O)cc3)ncn2)c1 [Eph2_wbz 106],Class III,SMALLER PLAQUES THAN WT,NO PLAQUES,
CC(=O)Nc1ccc(-c2ccc3c(-c4ccc(Br)c(F)c4)n[nH]c3n2)cc1 [APcK-20],,NO PLAQUES,,
COc1cc(OC)cc(-c2ccc3c(-c4ccc(F)c(C)c4)n[nH]c3n2)c1 [APcK-109],Class II,"SMALL PLAQUES, LARGE TAILS",SLIGHTLY SMALLER PLAQUES,
O=C(Nc1cccc(-c2ccc3nnc(-c4cccs4)n3n2)c1)c1cccc([N+](=O)[O-])c1 [YYB32],Class III,SMALL PLAQUES,SMALLER PLAQUES,
CC(=O)Nc1ccc(-c2ccc3c(-c4ccc(C)c(F)c4)n[nH]c3n2)cc1 [APcK-28],,SMALL PLAQUES,,
O=C(NCCO)c1cccc(-c2cnc3c(NCc4ccc(F)cc4)nccn23)c1 [LG2-96],Class III,NO PLAQUES,NO PLAQUES,no pinpoint plaque formed; also recorded: no plaques
COc1cc(OC)cc(-c2cnc3c(NCC4CC4)nccn23)c1 [LG2-102],Class III,NO PLAQUES,NO PLAQUES,
CCOC(=O)c1ccc(-c2ccc3c(-c4ccc(C#N)cc4)n[nH]c3n2)cc1 [APcK-55],,NO PLAQUES,,
COc1cc(OC)cc(-c2ccc3c(-c4ccc(Cl)c(F)c4)n[nH]c3n2)c1 [APcK-111],Class III,PINPOINT PLAQUES,PINPOINT PLAQUES,pinpoint plaque formations; also recorded: pinpoint plaques
Cc1ccc(NC(=O)c2ccc(CN3CCN(C)CC3)cc2)cc1Nc1nccc(-c2cnccc2C)n1 [StiAF3_Ue],Class III,NO PLAQUES,NO PLAQUES,
O=C(c1ccccc1)c1ccc(-c2ccc3c(-c4ccc(Br)c(F)c4)n[nH]c3n2)cc1 [APcK-38],,NO PLAQUES,,
Cc1ccc(-n2c(=O)[nH]c3c(C(N)=O)nc(-c4c(F)cc(Cl)cc4F)nc32)cc1 [dm-I-187],Class III,NO PLAQUES,SMALL PLAQUES,small plaques with no comets; also recorded: smaller (pinpoint) plaques with no comets
Cc1ccc(NC(=O)c2ccc(CN3CCN(Cc4ccc(I)cc4)CC3)cc2)cc1Nc1nccc(-c2cccnc2)n1 [STLL3],Class III,NO PLAQUES,PINPOINT PLAQUES,
COc1ccccc1Nc1cc(-c2ccc(NC(=O)CCC(=O)O)cc2)ncn1 [Eph2_wbz 217],,,SLIGHTLY SMALLER PLAQUES,
CCOC(=O)c1ccc(-c2ccc3c(-c4ccc(Cl)c(F)c4)n[nH]c3n2)cc1 [APcK-49],,SMALL PLAQUES,,
COc1ccc(-c2n[nH]c3nc(-c4ccc(O)cc4OC)ccc23)cc1 [APcK-31],,SMALL PLAQUES,,
COc1ccc(-c2n[nH]c3nc(-c4cccc(NC(C)=O)c4)ccc23)cc1 [APcK-101],,,,damaged monolayer
O=C(Nc1cccc(-c2ccc3nnc(-c4ccco4)n3n2)c1)Sc1ccccc1 [LG2-79],Class II,SMALL PLAQUES,"SMALLER PLAQUES, COMETS?",
Cc1cc(-c2ccc3c(-c4ccc(Cl)c(F)c4)n[nH]c3n2)cc(C)c1O [APcK-107],Class II,SMALLER PLAQUES THAN WT,SMALLER PLAQUES THAN WT,
Brc1cnc2c(NCc3cccs3)nccn12 [LG2-95],Class III,NO PLAQUES,PINPOINT PLAQUES,

Compound,Class category of infected monolayers in plaque assay,VACCINIA PLAQUE ASSAY 2,VACCINIA Plaque Assay,"Plaque phenotype due to drug treatment (FIGS. 1, 2, 4)"
COc1ccccc1Nc1cc(-c2ccc(O)cc2)ncn1 [Eph2_wbz 202],Class III,PINPOINT PLAQUES,"PLAQUES SMALLER THAN WT, STILL SEE COMETS",
CC(=O)Nc1cccc(-c2ccc3c(-c4ccc(Cl)c(F)c4)n[nH]c3n2)c1 [APcK-104],Class III,PINPOINT PLAQUES,SMALLER PLAQUES THAN WT. NO COMETS,
NC(=O)c1cccc(-c2ccc3c(-c4ccc(F)cc4)n[nH]c3n2)c1 [APcK-115],,SMALL PLAQUES,,
CC(=O)Nc1cccc(-c2ccc3c(-c4ccc(C#N)cc4)n[nH]c3n2)c1 [APcK-44],Class III,PINPOINT PLAQUES,SMALL PLAQUES WITH COMETS,
CN(C)CCNC(=O)c1ccc(-c2cnc3c(Nc4ccc(Oc5ccccc5)cc4)nccn23)cc1 [LG2-11],Class III,NO PLAQUES,"CPE, PINPOINT PLAQUES",
CCOC(=O)c1ccc(-c2n[nH]c3nc(-c4cccc(NC(C)=O)c4)ccc23)cc1 [APcK-105],Class III,PINPOINT PLAQUES,NO PLAQUES,no pinpoint plaque formed; also recorded: no plaques
"O=C1NC(=O)/C(=C/c2ccc3nccnc3c2)S1 [AS-604240, reference compound]",Class III,PINPOINT PLAQUES,PINPOINT PLAQUES,
Cn1c(=O)c(-c2c(Cl)cccc2Cl)cc2cnc(Nc3cccc(C(C)(C)C)c3)nc21 [YYA195],Class III,NO PLAQUES,NO PLAQUES,
COc1ccc(Nc2nccn3c(-c4cccc(C(N)=O)c4)cnc23)cc1 [LG2-13],Class III,SLIGHTLY SMALLER PLAQUES,PINPOINT PLAQUES,
COC(=O)c1ccc(-c2cc(Nc3ccccc3OC)ncn2)cc1OC [Eph2_wbz 211],Class II,SLIGHTLY SMALLER PLAQUES,SMALL PLAQUES Comets?,
COc1cccc(-c2cnc3c(Nc4ccccc4)nccn23)c1 [LG2-85],Class III,NO PLAQUES,PINPOINT PLAQUES,
COc1ccccc1NS(=O)(=O)c1cccc(NC(=O)CCOc2ccc3c(=O)[nH]ccc3c2)c1 [JAK2F],Class II,SLIGHTLY SMALLER PLAQUES,SMALL PLAQUES,
O=C(Nc1cccc(-c2ccc3nncn3n2)c1)c1cccc([N+](=O)[O-])c1 [YYB31],Class III,PINPOINTS,FEW COMETS,
O=C(c1ccccc1)c1ccc(-c2ccc3c(-c4ccc(Br)cc4F)n[nH]c3n2)cc1 [APcK-39],,NO PLAQUES,,
Cn1c(=O)c(-c2c(Cl)cccc2Cl)cc2cnc(NC3CCCCC3)nc21 [YYA194],Class III,NO PLAQUES,PINPOINT PLAQUES,
COc1ccccc1NS(=O)(=O)c1cccc(Nc2cc(-c3ccc(O)cc3)ncn2)c1 [Eph2_wbz 102],Class III,no plaques,NO PLAQUES,
CCOC(=O)c1ccc(-c2n[nH]c3nc(-c4cc(OC)cc(OC)c4)ccc23)cc1 [APcK-108],Class III,SMALL PLAQUES,PINPOINT PLAQUES,pinpoint plaque formations; also recorded: pinpoint plaques
COc1ccc(-c2n[nH]c3nc(-c4ccc(C(=O)c5ccccc5)cc4)ccc23)cc1 [APcK-34],,,"SMALL PLAQUES, LARGE COMETS",small plaque and large comets; also recorded: small plaques with large comets
COc1cc(-c2cnc3c(Nc4ccccc4)nccn23)ccc1O [LG2-62],Class II,SMALL PLAQUES,SMALLER PLAQUES THAN WT,
Cn1c(=O)c(-c2c(Cl)cccc2Cl)cc2cnc(Nc3ccc(Br)cc3)nc21 [PD-Br],Class III,NO PLAQUES,"SMALL PLAQUES, CPE",

# Source: patent publication US8268809B2, “Kinase inhibitors for preventing or treating pathogen infection and method of use thereof” (priority 2006, dated 2012)
